pIC50: −log10 of the molar value.
Biological target: Acetyl-CoA carboxylase 2 (Homo sapiens, UniProt O00763)
Experiment: Spectrophotometric 384 Well Assay: Assay reactions are then carried out in 384-well plates, with hACC2 in an appropriate dilution and at final assay concentrations (f.c.) of 100 mM Tris (pH 7.5), 10 mM trisodium citrate, 25 mM KHCO3, 10 mM MgCl2, 0.5 mg/ml BSA, 3.75 mM reduced L-glutathione, 15 U/ml lactate dehydrogenase, 0.5 mM phosphoenolpyruvate, 15 U/ml pyruvate kinase, compounds at different concentrations at final DMSO concentrations of 1%.The enzymatic reaction is then started by addition of a mixture of NADH, acetyl Coenzyme A (both […].) and ATP (500 uM f.c.). The decrease of the optical density (slope S) is then determined at 25° C. at a wavelength of 340 nm over 15 minutes in a spectrophotometric reader.Each assay microtiter plate contains wells with vehicle instead of compound as controls for the non-inhibited enzyme (100% CTL; HIGH) and wells without acetyl-CoA as controls for non-specific NADH degradation (0% CTL; LOW).

Chain of Acetyl-CoA carboxylase 2 (O00763 whole entry): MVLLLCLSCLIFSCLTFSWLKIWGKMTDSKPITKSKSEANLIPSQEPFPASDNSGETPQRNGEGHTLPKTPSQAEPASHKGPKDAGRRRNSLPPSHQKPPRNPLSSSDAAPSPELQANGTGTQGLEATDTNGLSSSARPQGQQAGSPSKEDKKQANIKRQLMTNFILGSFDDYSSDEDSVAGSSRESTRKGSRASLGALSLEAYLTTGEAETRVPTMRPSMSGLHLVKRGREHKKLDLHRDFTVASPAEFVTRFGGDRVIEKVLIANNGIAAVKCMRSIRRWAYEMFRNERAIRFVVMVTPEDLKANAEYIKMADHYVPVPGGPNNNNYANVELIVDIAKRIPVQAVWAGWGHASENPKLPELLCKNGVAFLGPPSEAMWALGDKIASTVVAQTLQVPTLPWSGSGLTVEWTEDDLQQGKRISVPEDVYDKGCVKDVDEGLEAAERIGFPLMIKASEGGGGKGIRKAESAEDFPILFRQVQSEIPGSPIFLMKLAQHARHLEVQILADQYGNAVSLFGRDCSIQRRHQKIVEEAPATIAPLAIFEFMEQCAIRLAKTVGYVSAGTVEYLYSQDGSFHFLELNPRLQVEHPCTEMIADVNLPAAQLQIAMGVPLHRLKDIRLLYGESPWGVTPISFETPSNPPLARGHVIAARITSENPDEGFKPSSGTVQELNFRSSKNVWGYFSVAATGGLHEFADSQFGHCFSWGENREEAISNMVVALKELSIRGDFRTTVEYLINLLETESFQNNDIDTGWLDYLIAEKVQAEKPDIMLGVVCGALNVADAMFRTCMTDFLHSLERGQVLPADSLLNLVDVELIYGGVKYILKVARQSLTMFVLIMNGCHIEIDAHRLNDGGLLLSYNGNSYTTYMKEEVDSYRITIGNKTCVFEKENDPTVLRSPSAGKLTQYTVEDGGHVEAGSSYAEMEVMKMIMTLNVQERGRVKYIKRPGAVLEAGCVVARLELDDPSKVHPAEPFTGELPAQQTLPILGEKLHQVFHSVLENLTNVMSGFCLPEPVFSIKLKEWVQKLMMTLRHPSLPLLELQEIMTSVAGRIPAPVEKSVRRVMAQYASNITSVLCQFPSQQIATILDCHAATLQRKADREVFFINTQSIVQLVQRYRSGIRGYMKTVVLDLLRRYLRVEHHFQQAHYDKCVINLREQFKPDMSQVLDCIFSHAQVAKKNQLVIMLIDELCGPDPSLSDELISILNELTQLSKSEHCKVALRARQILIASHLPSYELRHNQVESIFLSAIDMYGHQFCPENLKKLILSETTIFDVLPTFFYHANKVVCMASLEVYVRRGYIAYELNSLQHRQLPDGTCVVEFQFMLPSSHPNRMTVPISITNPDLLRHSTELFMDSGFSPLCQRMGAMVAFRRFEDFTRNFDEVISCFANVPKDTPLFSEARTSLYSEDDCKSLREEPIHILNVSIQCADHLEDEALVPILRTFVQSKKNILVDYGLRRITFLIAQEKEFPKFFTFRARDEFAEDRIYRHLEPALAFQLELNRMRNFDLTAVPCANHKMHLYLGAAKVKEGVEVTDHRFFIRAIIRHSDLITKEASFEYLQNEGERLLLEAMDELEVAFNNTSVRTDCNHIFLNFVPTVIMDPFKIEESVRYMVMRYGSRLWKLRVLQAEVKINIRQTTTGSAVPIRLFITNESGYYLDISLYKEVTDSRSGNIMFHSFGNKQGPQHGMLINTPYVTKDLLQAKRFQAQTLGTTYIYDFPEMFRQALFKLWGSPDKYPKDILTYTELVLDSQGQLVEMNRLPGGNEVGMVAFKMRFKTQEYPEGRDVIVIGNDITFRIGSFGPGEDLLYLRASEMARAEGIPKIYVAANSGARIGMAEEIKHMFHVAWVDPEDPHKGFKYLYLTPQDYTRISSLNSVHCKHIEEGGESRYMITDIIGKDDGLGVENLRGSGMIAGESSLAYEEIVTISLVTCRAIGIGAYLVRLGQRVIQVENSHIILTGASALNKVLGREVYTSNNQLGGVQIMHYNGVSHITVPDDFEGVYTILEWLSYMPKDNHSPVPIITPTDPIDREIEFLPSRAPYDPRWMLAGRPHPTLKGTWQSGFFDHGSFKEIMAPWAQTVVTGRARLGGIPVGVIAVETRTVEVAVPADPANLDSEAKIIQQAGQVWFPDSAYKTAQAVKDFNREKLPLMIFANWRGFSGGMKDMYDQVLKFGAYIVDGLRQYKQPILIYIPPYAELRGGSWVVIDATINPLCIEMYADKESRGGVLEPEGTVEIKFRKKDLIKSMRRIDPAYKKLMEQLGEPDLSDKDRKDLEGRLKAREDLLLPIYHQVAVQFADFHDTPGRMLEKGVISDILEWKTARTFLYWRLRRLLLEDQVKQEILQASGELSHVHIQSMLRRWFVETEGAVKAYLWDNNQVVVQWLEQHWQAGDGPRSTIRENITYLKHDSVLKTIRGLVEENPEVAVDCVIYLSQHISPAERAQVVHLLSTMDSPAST

Compound	pIC50
C[C@H](NC(=O)N(C)C)c1ccc(CN2Cc3ccc(OCC4CC4)cc3C(F)C2)cc1 (some centres not stated)	7.66
CC(=O)N[C@@H](C)c1ccc(CN2CCc3cc(OCC4CC4)ccc3C2C(=O)O)cc1 (some centres not stated)	6.09

From ChEMBL document CHEMBL3886715, “Tetrahydroisoquinoline derivatives, pharmaceutical compositions and uses thereof” (2016)
